#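 Compound exposure: 48 hours, 5 concentrations, 96-well plates. Abbreviation: GI50, concentration required for 50% inhibition of growth.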 Activity calls are given as the source filed them. No stated cut-off is given here; in the data, active = GI50 up to about 1.1 µM and inactive = higher. Non-standard residues stand in square brackets, D forms with d. Residues, ends and D or L forms follow the SMILES beside them. ξ: configuration not given here. Pentanoyl(2-O,4-OH,5-Cl) = O=C(O)C(O)CC(O)CCl; Ile(3ξ) = CCC(C)[C@H](N)C(=O)O; NMeV = CN[C@H](C(=O)O)C(C)C; NMeA = CN[C@@H](C)C(=O)O; βAla = NCCC(=O)O
# Assays:
# Test in all cases: DTP human tumour cell line panel, 48 h
# NCI-H226 = system: NCI-H226
# HCT-15 = system: HCT-15
# SF-295 = system: SF-295
# HCC 2998 = system: HCC 2998
# A549 = system: A549
# OVCAR-3 = system: OVCAR-3
# U-251 = system: U-251
# BT-549 = system: BT-549
# UO-31 = system: UO-31
# OVCAR-8 = system: OVCAR-8
# LOX IMVI = system: LOX IMVI
# HOP-92 = system: HOP-92
# Hs-578T = system: Hs-578T
# MOLT-4 = system: MOLT-4
# OVCAR-4 = system: OVCAR-4
# HL-60 = system: HL-60
# CAKI-1 = system: CAKI-1
# MDA-N = system: MDA-N
# SK-MEL-2 = system: SK-MEL-2
# SNB-19 = system: SNB-19
# SF-268 = system: SF-268
# SR = system: SR
# SK-MEL-28 = system: SK-MEL-28
# SW-620 = system: SW-620
# UACC-257 = system: UACC-257
# SF-539 = system: SF-539
# MDA-MB-435 = system: MDA-MB-435
# NCI-H460 = system: NCI-H460
# Malme-3M = system: Malme-3M
# SK-OV-3 = system: SK-OV-3
# SN12C = system: SN12C
# MCF7 = system: MCF7
# IGROV-1 = system: IGROV-1
# K562 = system: K562
# HCT-116 = system: HCT-116
# UACC-62 = system: UACC-62
# T47D = system: T47D
# CCRF-CEM = system: CCRF-CEM
# NCI-H23 = system: NCI-H23
# RXF 393 = system: RXF 393
# TK-10 = system: TK-10
# SNB-75 = system: SNB-75
# 786-0 = system: 786-0
# KM12 = system: KM12
# NCI/ADR-RES = system: NCI/ADR-RES
# EKVX = system: EKVX
# MDA-MB-231 = system: MDA-MB-231
# DU-145 = system: DU-145
# OVCAR-5 = system: OVCAR-5
# PC-3 = system: PC-3
# ACHN = system: ACHN
# RPMI-8226 = system: RPMI-8226
# COLO 205 = system: COLO 205
# NCI-H522 = system: NCI-H522
# M14 = system: M14
# SK-MEL-5 = system: SK-MEL-5
# HOP-62 = system: HOP-62
# HT-29 = system: HT-29
# A498 = system: A498
structure (smiles),measurement,setting,value
CCCCC(=C=C1CCCCC1O)C1CCCN1C(=O)OC(C)(C)C (configuration not stated),GI50,NCI-H226,17.4 µM (inactive)
same,GI50,HCT-15,16.4 µM
same,GI50,SF-295,14.8 µM (inactive)
same,GI50,HCC 2998,22.1 µM (inactive)
same,GI50,A549,14.9 µM (inactive)
same,GI50,OVCAR-3,15.7 µM (inactive)
same,GI50,U-251,15.9 µM (inactive)
same,GI50,BT-549,19.3 µM (inactive)
same,GI50,UO-31,21.3 µM (inactive)
same,GI50,OVCAR-8,18.7 µM (inactive)
same,GI50,LOX IMVI,17.7 µM (inactive)
same,GI50,HOP-92,12.8 µM (inactive)
same,GI50,Hs-578T,19.3 µM (inactive)
same,GI50,MOLT-4,15.8 µM (inactive)
same,GI50,OVCAR-4,13.9 µM (inactive)
same,GI50,HL-60,11.1 µM (inactive)
same,GI50,CAKI-1,11.5 µM (inactive)
same,GI50,MDA-N,16.4 µM (inactive)
same,GI50,SK-MEL-2,16.2 µM (inactive)
same,GI50,SNB-19,16.4 µM (inactive)
same,GI50,SF-268,17.3 µM (inactive)
same,GI50,SR,23.6 µM (inactive)
same,GI50,SK-MEL-28,15.5 µM (inactive)
same,GI50,SW-620,18.3 µM (inactive)
same,GI50,UACC-257,15.6 µM (inactive)
same,GI50,SF-539,18.7 µM (inactive)
same,GI50,MDA-MB-435,16.9 µM (inactive)
same,GI50,NCI-H460,15.5 µM (inactive)
same,GI50,Malme-3M,17.3 µM (inactive)
same,GI50,SK-OV-3,16.5 µM (inactive)
same,GI50,SN12C,17.8 µM (inactive)
same,GI50,MCF7,17.2 µM (inactive)
same,GI50,IGROV-1,16.7 µM (inactive)
same,GI50,K562,17.5 µM (inactive)
same,GI50,HCT-116,14.3 µM (inactive)
same,GI50,UACC-62,11.2 µM (inactive)
same,GI50,T47D,13.2 µM (inactive)
same,GI50,CCRF-CEM,17.6 µM (inactive)
same,GI50,NCI-H23,16 µM (inactive)
same,GI50,RXF 393,13 µM (inactive)
same,GI50,TK-10,16.1 µM (inactive)
same,GI50,SNB-75,13.8 µM (inactive)
same,GI50,786-0,16.1 µM (inactive)
same,GI50,KM12,16.6 µM (inactive)
same,GI50,NCI/ADR-RES,14.3 µM (inactive)
same,GI50,EKVX,14.9 µM (inactive)
same,GI50,MDA-MB-231,16.1 µM (inactive)
same,GI50,DU-145,17.5 µM (inactive)
same,GI50,OVCAR-5,16 µM (inactive)
same,GI50,PC-3,16.1 µM (inactive)
same,GI50,ACHN,15.8 µM (inactive)
same,GI50,RPMI-8226,12.6 µM (inactive)
same,GI50,COLO 205,17.3 µM (inactive)
same,GI50,NCI-H522,17.1 µM (inactive)
same,GI50,M14,16.9 µM (inactive)
same,GI50,SK-MEL-5,16.6 µM (inactive)
same,GI50,HOP-62,17 µM (inactive)
same,GI50,HT-29,14.3 µM (inactive)
"CCC(C)[C@@H]1NC(=O)[C@@H]2CCCN2C(=O)C(CC(O)CCl)OC(=O)CCNC(=O)[C@H](C)N(C)C(=O)[C@H](C(C)C)N(C)C1=O (some centres not stated) (cyclo([Ile(3ξ)][NMeV][NMeA][βAla][Pentanoyl(2-O,4-OH,5-Cl)]P))",GI50,NCI-H226,> 100 µM (inactive)
same,GI50,HCT-15,> 80.2 µM
same,GI50,SF-295,2.31 µM (inactive)
same,GI50,A549,47.6 µM (inactive)
same,GI50,OVCAR-3,17.9 µM (inactive)
same,GI50,U-251,> 29 µM (inactive)
same,GI50,BT-549,> 100 µM (inactive)
same,GI50,UO-31,> 93.3 µM (inactive)
same,GI50,OVCAR-8,> 100 µM (inactive)
same,GI50,HOP-92,1.09 µM (active)
same,GI50,Hs-578T,> 91.6 µM (inactive)
same,GI50,OVCAR-4,> 36.2 µM (inactive)
same,GI50,HL-60,44.1 µM (inactive)
same,GI50,CAKI-1,> 100 µM (inactive)
same,GI50,MDA-N,> 100 µM (inactive)
same,GI50,SK-MEL-2,0.347 µM (active)
same,GI50,SNB-19,> 100 µM (inactive)
same,GI50,SF-268,> 100 µM (inactive)
same,GI50,SR,0.361 µM (active)
same,GI50,SW-620,> 58.9 µM (inactive)
same,GI50,UACC-257,2.46 µM (inactive)
same,GI50,SF-539,> 100 µM (inactive)
same,GI50,MDA-MB-435,> 100 µM (inactive)
same,GI50,NCI-H460,> 31.4 µM (inactive)
same,GI50,Malme-3M,12.3 µM (inactive)
same,GI50,SK-OV-3,> 100 µM (inactive)
same,GI50,SN12C,> 100 µM (inactive)
same,GI50,MCF7,> 39.8 µM (inactive)
same,GI50,IGROV-1,> 100 µM (inactive)
same,GI50,K562,> 45.1 µM (inactive)
same,GI50,HCT-116,13.9 µM (inactive)
same,GI50,UACC-62,0.923 µM (active)
same,GI50,T47D,3.94 µM (inactive)
same,GI50,CCRF-CEM,0.483 µM (active)
same,GI50,NCI-H23,> 100 µM (inactive)
same,GI50,RXF 393,> 100 µM (inactive)
same,GI50,TK-10,> 100 µM (inactive)
same,GI50,SNB-75,2.92 µM (inactive)
same,GI50,KM12,> 61.9 µM (inactive)
same,GI50,NCI/ADR-RES,> 100 µM (inactive)
same,GI50,EKVX,> 100 µM (inactive)
same,GI50,MDA-MB-231,> 47.5 µM (inactive)
same,GI50,DU-145,> 100 µM (inactive)
same,GI50,OVCAR-5,> 100 µM (inactive)
same,GI50,PC-3,74.6 µM (inactive)
same,GI50,ACHN,> 100 µM (inactive)
same,GI50,RPMI-8226,0.247 µM (active)
same,GI50,COLO 205,1.91 µM (inactive)
same,GI50,NCI-H522,2.36 µM (inactive)
same,GI50,M14,0.46 µM (active)
same,GI50,SK-MEL-5,0.248 µM (active)
same,GI50,HOP-62,> 68.2 µM (inactive)
same,GI50,A498,> 29.1 µM (inactive)
same,GI50,HT-29,3.12 µM (inactive)

# Source: ChEMBL document CHEMBL1201862, “PubChem BioAssay data set” (2004)
